According to patent EP3381898A1, “SYMMETRICAL TRIS-ARYL-AMIDE DERIVATIVES AND THEIR USE AS ANTI-HEPARANASE” (priority 2017, dated 2018):

Legend:
Format in all cases: cell-based, human
FGF-2 = experiment: Real-Time Quantitative PCR of mRNA gene expression in HT1080 cells; settings: 24 h, 2.5 uM, mean value
Method: (§1) To evaluate the effect of heparanase inhibitors on the tumor transcription of genes encoding for proangiogenic factors, such as FGF1/2, VEGF, MMP-9, HSPE-1, the relative mRNA levels were analyzed by quantitative Real-Time Quantitative PCR.
(§2) To perform the assay, HT1080 (human fibrosarcoma) cells were cultured in complete medium containing 10%FCS (fetal calf serum). Cells were plated in 24-well plates and treated at fixed concentration (i.e., highest non-toxic concentration) of test compounds. After 24 h, cells were detached, collected and total RNA extracted by RNeasy Mini Kit (QIAGEN). Following reverse transcription step, FGF1/2, VEGF, MMP-9, HSPE-1 mRNA levels, were quantified by qPCR using the advanced Universal SYBR Green Supermix (Bio Rad) and ABI PRISM 7900HT Thermal Cycler System (Perkin Elmer), according to the manufacturer's instructions. Appropriate no-RT and non-template controls were included in each 96-well PCR reaction, and dissociation analysis was performed at the end of each run to confirm the specificity of the reaction. Relative levels of RNA were calculated using the ddCt method. Standard curve and sample data were run in duplicate. In Table 4 a mean value is reported.

VEGF = experiment: as above; settings: 24 h, 2.5 uM, mean value
Method: as §1, §2

MMP-9 = experiment: as above; settings: 24 h, 2.5 uM, mean value
Method: as §1, §2

HPSE-1 = experiment: as above; settings: 24 h, 2.5 uM, mean value
Method: as §1, §2

FGF-1 = experiment: as above; settings: 24 h, 2.5 uM, mean value
Method: as §1, §2

[1] = tested on: genes encoding for proangiogenic factors; experiment: Real-Time Quantitative PCR in HT1080 cells, summary statement for all factors; settings: 2.5 µM, result in words
Method: as §1
as §2, with “reported. […]” for “reported.”

2,2'-{carbonylbis[imino[5-(trifluoromethyl)-3,1-phenylene]carbonylimino(1-methyl-1H-pyrrole-4,2-diyl)carbonylimino-3,1-phenylene(1-oxoethane-2,1-diyl)imino]}diethanoic acid [Compound 12i]
Gene Expression (% mRNA vs. control) FGF-2 (FGF-2): ~ 82% | Gene Expression (% mRNA vs. control) VEGF (VEGF): ~ 55% | Gene Expression (% mRNA vs. control) MMP-9 (MMP-9): ~ 50% | Gene Expression (% mRNA vs. control) HPSE-1 (HPSE-1): ~ 63% | Gene Expression (% mRNA vs. control) FGF-1 (FGF-1): ~ 53% | inhibition of genes expression encoding for proangiogenic factors [1]: significant inhibition
